Source: paper PMC10382042, “Brevetoxin versus Brevenal Modulation of Human Nav1 Channels” (Marine Drugs, 2023)
Where “and” joins values, the source holds several entries; their conditions need not be identical. Equal values may be shown once. Read-outs that look alike come from different tables or passages of the source.

Assays:
human Nav1.4 [1] = biological target: T1, human Nav1.4 (Homo sapiens, UniProt P35499); test: Automated patch-clamp, concentration-response and inactivation fits, Nav1.4 in CHO-K1; type: cell-based; settings: for Nav1.4 yinf / Nav1.4 τ inact: n = 4
T1 sequence (P35499 whole entry): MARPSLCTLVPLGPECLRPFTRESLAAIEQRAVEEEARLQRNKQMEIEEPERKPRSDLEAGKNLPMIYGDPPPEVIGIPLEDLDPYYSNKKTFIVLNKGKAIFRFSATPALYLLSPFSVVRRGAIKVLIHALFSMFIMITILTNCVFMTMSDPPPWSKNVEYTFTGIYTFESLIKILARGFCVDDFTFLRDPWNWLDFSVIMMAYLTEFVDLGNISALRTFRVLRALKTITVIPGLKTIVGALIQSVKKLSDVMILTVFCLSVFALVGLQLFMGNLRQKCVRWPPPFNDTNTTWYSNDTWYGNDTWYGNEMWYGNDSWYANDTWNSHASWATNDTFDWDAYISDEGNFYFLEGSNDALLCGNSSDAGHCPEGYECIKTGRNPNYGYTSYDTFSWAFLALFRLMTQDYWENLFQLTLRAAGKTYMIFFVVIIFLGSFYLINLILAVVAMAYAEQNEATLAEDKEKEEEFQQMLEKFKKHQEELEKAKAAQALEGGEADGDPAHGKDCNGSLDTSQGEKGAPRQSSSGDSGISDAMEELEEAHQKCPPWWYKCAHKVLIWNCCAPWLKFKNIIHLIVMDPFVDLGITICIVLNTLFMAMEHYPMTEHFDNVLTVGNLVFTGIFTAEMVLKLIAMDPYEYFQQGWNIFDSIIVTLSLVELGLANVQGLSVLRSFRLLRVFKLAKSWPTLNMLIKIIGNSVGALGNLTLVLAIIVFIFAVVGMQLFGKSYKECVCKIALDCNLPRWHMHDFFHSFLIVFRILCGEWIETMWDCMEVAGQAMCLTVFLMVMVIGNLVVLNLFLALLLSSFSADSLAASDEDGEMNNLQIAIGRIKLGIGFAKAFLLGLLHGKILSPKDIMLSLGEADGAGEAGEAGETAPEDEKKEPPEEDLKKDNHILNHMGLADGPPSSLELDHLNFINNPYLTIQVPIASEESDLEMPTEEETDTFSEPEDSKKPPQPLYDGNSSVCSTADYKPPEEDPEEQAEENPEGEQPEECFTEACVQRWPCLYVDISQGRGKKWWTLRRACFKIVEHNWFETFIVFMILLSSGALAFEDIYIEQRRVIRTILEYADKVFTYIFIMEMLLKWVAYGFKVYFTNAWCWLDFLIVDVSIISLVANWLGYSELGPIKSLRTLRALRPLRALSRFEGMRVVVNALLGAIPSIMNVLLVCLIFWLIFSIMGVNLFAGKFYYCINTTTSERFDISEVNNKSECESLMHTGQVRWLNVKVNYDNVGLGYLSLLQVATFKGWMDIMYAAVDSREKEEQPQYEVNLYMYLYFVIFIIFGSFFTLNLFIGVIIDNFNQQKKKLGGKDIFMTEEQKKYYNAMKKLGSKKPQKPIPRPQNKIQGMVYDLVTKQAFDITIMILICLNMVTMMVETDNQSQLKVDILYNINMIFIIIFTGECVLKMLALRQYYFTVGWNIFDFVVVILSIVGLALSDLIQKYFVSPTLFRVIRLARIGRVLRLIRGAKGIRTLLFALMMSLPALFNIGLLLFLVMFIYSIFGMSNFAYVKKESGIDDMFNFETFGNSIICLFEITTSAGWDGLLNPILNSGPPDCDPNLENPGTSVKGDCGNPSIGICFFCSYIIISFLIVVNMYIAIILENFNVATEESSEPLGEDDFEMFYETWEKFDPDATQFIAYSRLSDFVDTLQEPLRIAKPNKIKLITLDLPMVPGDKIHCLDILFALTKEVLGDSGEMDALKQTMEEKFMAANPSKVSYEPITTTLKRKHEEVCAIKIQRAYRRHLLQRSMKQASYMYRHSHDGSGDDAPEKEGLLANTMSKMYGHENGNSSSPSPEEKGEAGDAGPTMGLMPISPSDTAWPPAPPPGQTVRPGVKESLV
Protocol: Functional modulation of recombinant human voltage-gated sodium (Nav) channels exposed to marine PbTx-3 and brevenal was assessed by automated patch-clamp electrophysiology. Neuronal Nav1.2 (CNS) and Nav1.7 (PNS), in addition to muscle Nav1.4 (skeletal) and Nav1.5 (cardiac) sodium channels, were patch-clamped in mammalian cells. Whole-cell currents mediated by human Nav1.4 and Nav1.7 overexpressed in CHO-K1 cells, as well as human Nav1.2 and Nav1.5 overexpressed in HEK293 cells, were recorded at room temperature. Currents were elicited by 25 ms test pulses to −20 mV from a holding potential (Vh) of −120 mV, delivered for 5 min at 0.1 Hz, after each full-bath solution exchange to allow current amplitude and kinetics to reach a steady state.
Current traces were scaled to maximal Ipeak and are presented as insets in Figure 2 to underline the effects (or lack thereof) of PbTx-3 and brevenal on the current kinetics of the four Nav isoforms studied. Inactivation time constants (τinact) in control and the presence of PbTx-3 and brevenal were estimated by exponential fits (see Methods) to the current decay between 15% and 85% of the depolarizing pulse. Single exponential fits adequately described τinact for the neuronal and the skeletal muscle Nav isoforms, whereas a double exponential fit was required to approximate open channel inactivation of the cardiac Nav current. Consistent with the enhancement of Ilate observed for Nav1.2, Nav1.4, and Nav1.5 in the presence of PbTx-3, significant concentration-dependent increases in the Yinf asymptote were detected (Tables S1–S3). These were mirrored by brevenal exposure in Nav1.2- and Nav1.4-mediated currents. Nevertheless, the estimated τinacts appeared insensitive to PbTx-3 and brevenal modification, with the notable exception of Nav1.4, for which high concentrations of PbTx-3 and brevenal caused a measurable slowing of the open channel inactivation time constant (Table S2).
(§1) Recording solutions: The extracellular solution contained (in mM) 140 NaCl, 5 KCl, 2 CaCl2, 2 MgCl2, 10 glucose, and 10 HEPES (pH 7.4 with NaOH, 298 ± 3 mOsmol/k g). Control intracellular solution (in mM): 60 CsF, 70 CsCl, 10 EGTA, 10 glucose, and 10 HEPES (pH 7.2 with CsOH, 285 ± 3 mOsmol/kg). Intracellular exposure to brevenal (1 μM) was achieved by including it in the control intracellular solution during chip filling.
HEK293 cells heterologously expressing human Nav1.2 (Scottish Biomedical, a kind gift from the Petrous lab, Florey Institute of Neuroscience and Mental Health, Melbourne, VIC Australia) and Nav1.5 (ChanTest Corp., Cleveland, OH, USA) were cultured in DMEM containing 10% v/v FBS and selection antibiotics to enable stable expression as per the manufacturer’s recommendation. CHOK1 expressing Nav1.4 and Nav1.7 (ChanTest) was cultured in DMEM/F12 containing 10% v/v FBS and selection antibiotics supporting stable expression as recommended by the manufacturer. Cells were maintained in a humidified 5% CO2 incubator at 37 °C, grown in T25 flasks to 70–80% confluence, and passaged every 3–4 days using TrypLE Express (Invitrogen). After harvesting with TrypLE, cells were resuspended to 10^5 cells/mL in cold extracellular solution and allowed to recover for 30 min at 4 °C before recording.
(§2) Electrophysiology: Automated patch-clamp (APC) recordings were performed in a PatchLiner Octo (Nanion Technologies GmbH, Munich, Germany) equipped with two EPC-10 quadro patch-clamp amplifiers (HEKA Electronik, Lambrecht/Pfalz, Germany). PatchControl HT (Nanion) was used for cell capture, seal formation, and establishment of the whole-cell configuration, whilst voltage was controlled and currents were sampled with PatchMaster (HEKA Electronics). Recordings were performed under the whole-cell configuration using single-hole planar medium resistance NPC-16 chips (Rchip, resistance of ~2.5 MΩ) at room temperature (22–24 °C).
Cells between passages 6 and 12 were used. […]

human Nav1.4 [2] = biological target: T1, human Nav1.4; test: Automated patch-clamp I-V relationship (voltage dependence of activation, Gmax), Nav1.4; type: cell-based
Protocol: (§3) The voltage dependence of recombinant Nav channel-mediated currents exposed to PbTx-3 and brevenal was evaluated using current–voltage (I-V) relationships built for Ipeak and Ilate elicited by a standard stimulation protocol (25 ms, −100 to +60 mV, Vh −120 mV, 0.1 Hz).
[…] […] To investigate the possibility of overlapping binding of these compounds within Nav channels, Nav whole-cell currents were recorded using an intracellular solution supplemented with brevenal (Brevenali = 1 μM). After equilibration, extracellular PbTx-3o (1 μM) was applied and its modulatory effects over the current kinetics and voltage dependence of activation were compared.
(§4) Figure 4 and Figure 5 display representative current traces mediated by human recombinant Nav channels in control and upon exposure to PbTx-3 and brevenal. I-V plots from the normalized peak and late (when present) currents amplitudes (Ipeak/Ipeak^max and Ilate/Ipeak^max) were fitted to a Boltzmann function rendering the half-maximal activation potential (V0.5) and normalized macroscopic conductance (Gmax) parameters (see Section 4). The changes in V0.5 (ΔV0.5 = V0.5^Comp − V0.5^Ctr) and relative Gmax (Gmax^Rel = Gmax^Comp/Gmax^Ctr) observed in the presence of PbTx-3 and brevenal and control conditions were then calculated and compared for all assayed conditions.
as §1, §2
(§5) Peak I–V curves were fitted using:I(V) = (V − Vrev) × Gmax/(1 + exp ((V0.5 − V)/Vslope) where I is the macroscopic current, V is the command potential, Vrev is the reversal potential (mV), Gmax is the maximal conductance, V0.5 is the half-activation potential (mV), and Vslope is the slope factor (mV/e-fold).

human Nav1.7 = human Nav1.7 (Homo sapiens, UniProt Q15858); test: Automated patch-clamp I-V relationship (voltage dependence of activation, Gmax), Nav1.7; type: cell-based
human Nav1.7, sequence (Q15858 whole entry): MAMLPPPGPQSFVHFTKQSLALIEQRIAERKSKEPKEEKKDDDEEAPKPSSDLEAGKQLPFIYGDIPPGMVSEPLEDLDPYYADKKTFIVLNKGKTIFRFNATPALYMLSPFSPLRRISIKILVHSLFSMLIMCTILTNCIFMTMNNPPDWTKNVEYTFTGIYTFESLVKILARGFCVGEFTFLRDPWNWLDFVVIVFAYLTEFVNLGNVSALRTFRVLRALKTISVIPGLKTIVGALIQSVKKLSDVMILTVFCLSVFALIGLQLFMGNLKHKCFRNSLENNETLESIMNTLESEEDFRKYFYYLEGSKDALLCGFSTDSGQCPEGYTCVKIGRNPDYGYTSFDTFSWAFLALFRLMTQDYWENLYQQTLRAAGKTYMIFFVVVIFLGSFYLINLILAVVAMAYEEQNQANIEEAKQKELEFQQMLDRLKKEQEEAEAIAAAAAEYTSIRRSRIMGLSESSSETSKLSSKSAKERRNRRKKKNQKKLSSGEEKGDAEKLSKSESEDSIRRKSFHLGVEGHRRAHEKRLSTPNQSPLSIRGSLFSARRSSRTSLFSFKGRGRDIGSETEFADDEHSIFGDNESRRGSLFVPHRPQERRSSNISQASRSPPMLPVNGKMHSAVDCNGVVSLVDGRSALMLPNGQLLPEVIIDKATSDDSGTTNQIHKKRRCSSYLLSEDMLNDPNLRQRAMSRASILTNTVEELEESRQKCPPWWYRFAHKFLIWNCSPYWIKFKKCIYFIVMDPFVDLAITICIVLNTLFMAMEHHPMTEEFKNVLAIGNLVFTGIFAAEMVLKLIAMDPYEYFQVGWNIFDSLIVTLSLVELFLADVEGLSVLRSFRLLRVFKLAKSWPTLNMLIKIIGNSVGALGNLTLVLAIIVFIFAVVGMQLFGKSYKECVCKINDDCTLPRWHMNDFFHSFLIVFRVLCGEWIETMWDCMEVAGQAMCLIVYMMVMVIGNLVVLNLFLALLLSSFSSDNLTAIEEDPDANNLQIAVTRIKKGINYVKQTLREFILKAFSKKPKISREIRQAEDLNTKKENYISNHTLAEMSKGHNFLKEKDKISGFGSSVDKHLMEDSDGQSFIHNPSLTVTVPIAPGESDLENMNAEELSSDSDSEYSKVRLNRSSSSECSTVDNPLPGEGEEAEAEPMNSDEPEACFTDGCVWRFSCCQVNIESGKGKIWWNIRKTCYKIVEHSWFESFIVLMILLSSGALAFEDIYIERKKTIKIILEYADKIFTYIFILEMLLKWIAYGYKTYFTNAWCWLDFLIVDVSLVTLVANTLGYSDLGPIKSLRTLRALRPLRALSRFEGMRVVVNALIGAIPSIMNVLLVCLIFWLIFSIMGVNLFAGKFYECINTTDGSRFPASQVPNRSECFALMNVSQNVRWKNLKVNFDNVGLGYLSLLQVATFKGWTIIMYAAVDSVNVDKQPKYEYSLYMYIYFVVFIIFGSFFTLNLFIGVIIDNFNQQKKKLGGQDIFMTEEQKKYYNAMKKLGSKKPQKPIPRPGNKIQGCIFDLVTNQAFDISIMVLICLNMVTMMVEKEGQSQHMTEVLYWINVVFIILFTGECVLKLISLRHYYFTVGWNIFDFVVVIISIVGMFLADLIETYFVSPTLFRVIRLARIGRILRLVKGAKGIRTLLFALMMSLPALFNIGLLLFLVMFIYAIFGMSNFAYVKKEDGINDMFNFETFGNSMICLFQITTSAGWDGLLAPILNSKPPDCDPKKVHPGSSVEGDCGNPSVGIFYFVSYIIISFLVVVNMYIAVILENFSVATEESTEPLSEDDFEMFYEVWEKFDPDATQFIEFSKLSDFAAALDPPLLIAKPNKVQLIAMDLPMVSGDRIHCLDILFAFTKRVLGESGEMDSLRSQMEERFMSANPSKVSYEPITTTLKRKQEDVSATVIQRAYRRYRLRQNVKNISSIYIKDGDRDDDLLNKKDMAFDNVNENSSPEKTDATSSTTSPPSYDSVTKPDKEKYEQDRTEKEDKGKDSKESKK
Protocol: as §3
The effects of extracellular exposure to PbTx-3 (PbTx-3o = 1 μM) and brevenal (Brevenalo = 10 μM) on the activation of Nav channels in neuronal and muscle cells were examined under normal intracellular ionic conditions. […] To investigate the possibility of overlapping binding of these compounds within Nav channels, Nav whole-cell currents were recorded using an intracellular solution supplemented with brevenal (Brevenali = 1 μM). After equilibration, extracellular PbTx-3o (1 μM) was applied and its modulatory effects over the current kinetics and voltage dependence of activation were compared.
as §4, §1, §2, §5

[3] = tested on: nodose ganglion neuron Navs; settings: cited from earlier work
[4] = test pulse −20 mV, Vh −120 mV, extracellular, n = 5

For C=C/C=C\CC[C@H]1O[C@H]2CC[C@@]3(C)O[C@H]4[C@@H](O)C[C@@]5(C)O[C@@H](CC/C=C(C)/C(C)=C/C=O)[C@@H](C)C[C@H]5O[C@@H]4C[C@@H]3O[C@@H]2CC[C@@]1(C)O [Brevenal], the Nav1.4 yinf (human Nav1.4 [1]; 10^-5 M) was 0.19±0.03, the “Nav1.4 τ inact” value (human Nav1.4 [1]; 10^-5 M) was 1.16 ± 0.15 ms and the Nav1.4 yinf (human Nav1.4 [1]; 10^-6 M) was 0.14±0.03. For the same molecule, the Nav1.4 yinf (human Nav1.4 [1]; 10^-9 M) was 0.09±0.01, the “Nav1.4 τ inact” value (human Nav1.4 [1]; 10^-9 M) was 0.71 ± 0.11 ms and the “fold lower potency than PbTx-3 at enhancing Nav1.4-mediated Ilate” value (human Nav1.4 [1]; Brevenal EC50 vs PbTx-3 EC50) was ~ 25 fold. For the same molecule, the EC50 (human Nav1.4 [1]; enhancement of late current, −20 mV, Vh −120 mV, n = 5, read-out: Nav1.4 Ilate EC50) was 100 nM, the EC50 (human Nav1.4 [1]; inhibition of peak current, −20 mV, Vh −120 mV, n = 5, read-out: Nav1.4 Ipeak EC50) was 7.7 nM and the “Nav1.4 Ilate FC^Max (maximal fold change)” value (human Nav1.4 [1]; [4]) was 4.1 ± 0.8. The “Nav1.4 Ipeak FC^Max (maximal fold change)” value (human Nav1.4 [1]; [4]) was 0.1 ± 0.1, the “Nav1.4 Ilate FC^Max (maximal fold change)” value (human Nav1.4 [1]; test pulse −20 mV, Vh −120 mV, extracellular, n = 5, listed as brevenal) was 4.1 and the “inhibition of Nav1.4 Gmax” value (human Nav1.4 [2]; Brevenalo 1 μM) was ~ 70%. For the same molecule, the “Gmax^Rel of Nav1.4” value (human Nav1.4 [2]; Brevenalo 1 μM, n = 7) was 0.3 ± 0.02, the “depolarizing shift in V0.5 of Nav1.4” value (human Nav1.4 [2]; Brevenalo 1 μM, n = 7) was 4.9 ± 1.1 mV and the “Nav1.4 V0.5” value (human Nav1.4 [2]; Ctro:Brevenali, n = 4, control −31.8 ± 0.5 mV) was −26.4 ± 2.8 mV. For the same molecule, the “right shift of Nav1.4 activation vs control intracellular” value (human Nav1.4 [2]; brevenal 1 μM in the intracellular solution) was ~ 5 mV, the “Nav1.7 V0.5” value (human Nav1.7; Brevenali-occupied channels (intracellular 1 μM), n = 4, control −20.0 ± 2.4 mV) was −16.6 ± 1.7 mV and the “decrease in Nav1.7 Gmax” value (human Nav1.7; Brevenalo 10 μM) was ~ 10%. The “Gmax^Rel of Nav1.7” value (human Nav1.7; Brevenalo 10 μM, n = 5) was 0.9 ± 0.1 and the “shift in V0.5 of Nav1.7” value (human Nav1.7; Brevenalo 10 μM, n = 6) was −4.5 ± 0.4 mV.
In the case of C=C(CO)C[C@@H]1C[C@H](O)[C@]2(C)OC3CC4OC5C[C@]6(C)O[C@]7(C)CCC8OC9C[C@]%10(C)OC%11C(C)=CC(=O)OC%11CC%10OC9C[C@@H](C)C8OC7CC6O[C@@]5(C)C/C=C\C4OC3CC2O1 (stereo partly shown) [PbTx-3, Brevetoxin PbTx-3], the “Nav1.4 Ipeak FC^Max (maximal fold change)” value (human Nav1.4 [1]) is reported as 0.03 ± 0.03, the EC50 (human Nav1.4 [1]; read-out: EC50, enhancement of Nav1.4-mediated Ilate) is reported as 4 nM and the EC50 (human Nav1.4 [1]; read-out: Nav1.4 Ilate EC50) is reported as 4.1 nM. The EC50 (human Nav1.4 [1]; read-out: Nav1.4 Ipeak EC50) was 0.91 nM, the “Gmax^Rel of Nav1.4” value (human Nav1.4 [2]) was 0.3 ± 0.05 and 0.4 ± 0.1 and the “hyperpolarizing shift in V0.5 of Nav1.4” value (human Nav1.4 [2]) was 9.2 ± 1.5 mV. For the same molecule, the “inhibition of Nav1.4 Gmax” value (human Nav1.4 [2]) was ~ 70%, the “inhibition of Nav1.4 Ipeak” value (human Nav1.4 [2]) was “completely inhibited” and the “ΔV0.5 of Nav1.4 activation” value (human Nav1.4 [2]) was 3.1 ± 2.6 mV. For the same molecule, the “decrease in Nav1.7 maximal conductance” value (human Nav1.7) was ~ 70%, the “leftward shift in activation ΔV0.5 of Nav1.7” value (human Nav1.7) was 6.8 ± 0.7 mV and the “shift in the voltage dependence of activation of Nav1.7” value (human Nav1.7) was −10.0 ± 0.6 mV. For the same molecule, the “fold increase in the mean apparent single-channel open time” value [3] was ~ 2 fold and the “lower conductance (sub-conductance) levels of PbTx-3-modified nodose Navs” value [3] was 10.7 pS and 21.2 pS.
